Results as given in article PMC11040327 (RSC Advances, 2024).
Where two headings read alike, the source gives them in different places.

Legend:
VEGFR2 = VEGFR2 (Homo sapiens, UniProt P35968); test: VEGFR2 kinase inhibition assay; format: biochemical; conditions: for inhibition at 10 µM: read-out: VEGFR2 % Of inhibition at [10 μM], 10 μM compound
HCT-116 cells [1] = test: Annexin V/PI flow cytometry for apoptosis in HCT-116 cells; format: cell-based; conditions: treated at IC50 for 48 h
HCT-116 cells [2] = test: MTT cytotoxicity assay against HCT-116 cells; format: cell-based
[3] = Homo sapiens, HCT-116, 48 h, read-out: IC50 (μM) ± SD, cytotoxicity against HCT-116 cells, HCT-116 cells, MTT assay, 48 h, three independent trials

Sequence of VEGFR2 (P35968 20-1356): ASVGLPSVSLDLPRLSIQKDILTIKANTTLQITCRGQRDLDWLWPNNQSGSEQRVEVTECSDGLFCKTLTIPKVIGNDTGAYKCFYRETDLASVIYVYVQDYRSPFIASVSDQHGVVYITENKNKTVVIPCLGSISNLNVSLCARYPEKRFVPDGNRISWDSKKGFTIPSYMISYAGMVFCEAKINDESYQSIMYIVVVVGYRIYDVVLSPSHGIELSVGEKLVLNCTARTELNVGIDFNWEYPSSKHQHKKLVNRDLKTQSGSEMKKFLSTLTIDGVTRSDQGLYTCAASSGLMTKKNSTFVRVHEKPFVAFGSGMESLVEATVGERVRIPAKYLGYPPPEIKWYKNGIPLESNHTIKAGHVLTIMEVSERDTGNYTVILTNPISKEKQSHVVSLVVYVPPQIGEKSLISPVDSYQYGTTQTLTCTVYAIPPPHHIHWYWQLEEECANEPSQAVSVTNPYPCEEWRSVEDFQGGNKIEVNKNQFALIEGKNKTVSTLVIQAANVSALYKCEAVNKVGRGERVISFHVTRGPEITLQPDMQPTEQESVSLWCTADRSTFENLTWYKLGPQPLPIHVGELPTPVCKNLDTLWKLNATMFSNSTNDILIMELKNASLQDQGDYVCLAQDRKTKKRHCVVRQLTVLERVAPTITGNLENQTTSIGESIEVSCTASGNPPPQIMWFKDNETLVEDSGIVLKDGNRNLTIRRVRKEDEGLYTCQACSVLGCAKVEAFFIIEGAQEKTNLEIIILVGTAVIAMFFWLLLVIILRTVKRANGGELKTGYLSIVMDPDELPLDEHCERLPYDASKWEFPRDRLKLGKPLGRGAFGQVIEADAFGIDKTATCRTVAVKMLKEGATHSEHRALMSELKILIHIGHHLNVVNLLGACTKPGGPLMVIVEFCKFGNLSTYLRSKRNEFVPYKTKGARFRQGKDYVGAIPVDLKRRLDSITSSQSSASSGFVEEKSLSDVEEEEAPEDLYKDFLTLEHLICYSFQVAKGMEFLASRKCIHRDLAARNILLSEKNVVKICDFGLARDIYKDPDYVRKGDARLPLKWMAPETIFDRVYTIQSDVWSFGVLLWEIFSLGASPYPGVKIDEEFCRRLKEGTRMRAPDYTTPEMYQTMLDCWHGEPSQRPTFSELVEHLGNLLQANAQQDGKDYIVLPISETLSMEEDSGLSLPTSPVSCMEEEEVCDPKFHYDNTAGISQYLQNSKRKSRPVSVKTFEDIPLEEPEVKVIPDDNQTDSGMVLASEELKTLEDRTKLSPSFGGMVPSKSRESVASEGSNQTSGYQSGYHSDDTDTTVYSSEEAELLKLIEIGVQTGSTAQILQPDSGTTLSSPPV

SMILES	IC50 (HCT-116 cells [2]; [3])	further results
O=C(CCn1nc(Cc2ccccc2)c2ccccc2c1=O)N1CCCCC1 [Compound 7d, 4-benzyl-2-(3-oxo-3-(piperidin-1-yl)propyl) phthalazin-1(2H)-one]		inhibition at 10 µM (VEGFR2): 97.6%; apoptosis induction, fold versus untreated cells (HCT-116 cells [1]): 23.6 fold
COc1ccc(/C=N\NC(=O)CNC(=O)CCn2nc(Cc3ccccc3)c3ccccc3c2=O)cc1 [Compound 13c, (Z)-3-(4-benzyl-1-oxophthalazin-2(1H)-yl)-N-(2-(2-(4-methoxybenzylidene) hydrazinyl)-2-oxoethyl)propanamide]	0.64 ± 0.05 µM	VEGFR2 % Of inhibition at [10 μM] (VEGFR2; 10 μM compound, 10 µM): 96.4 ± 2.8%; IC50 (VEGFR2; VEGFR2 IC50 [nM] ± SD, five concentrations, three replicates): 19.8 ± 0.6 nM; inhibition at 10 µM (VEGFR2): 95.2%
CNC(=O)c1cc(Oc2ccc(NC(=O)Nc3ccc(Cl)c(C(F)(F)F)c3)cc2)ccn1 [Sorafenib, reference compound]	2.93 µM	IC50 (HCT-116 cells [2]; read-out: IC50 (μM) ± SD, cytotoxicity against HCT-116 cells, HCT-116 cells, MTT assay, 48 h, three independent trials): 3.23 ± 0.03 µM
CCCCNC(=O)CCn1nc(Cc2ccccc2)c2ccccc2c1=O [Compound 7f, 3-(4-benzyl-1-oxophthalazin-2(1H)-yl)-N-butylpropanamide]	18.8 ± 0.6 µM	
O=C(CCn1nc(Cc2ccccc2)c2ccccc2c1=O)NCC(=O)N/N=C\c1ccc([N+](=O)[O-])cc1 [Compound 13a, (Z)-3-(4-benzyl-1-oxophthalazin-2(1H)-yl)-N-(2-(2-(4-nitrobenzylidene) hydrazinyl)-2-oxoethyl)propanamide]	45.7 ± 1.8 µM	
C=CCNC(=O)CCn1nc(Cc2ccccc2)c2ccccc2c1=O [Compound 7a, N-allyl-3-(4-benzyl-1-oxophthalazin-2(1H)-yl)propanamide]	34.8 ± 1.9 µM	
O=C(CCn1nc(Cc2ccccc2)c2ccccc2c1=O)N1CCOCC1 [Compound 7b, 4-benzyl-2-(3-morpholino-3-oxopropyl) phthalazin-1(2H)-one]	24.3 ± 1.5 µM	
NNC(=O)CCn1nc(Cc2ccccc2)c2ccccc2c1=O [Compound 5, 3-(4-benzyl-1-oxophthalazin-2(1H)-yl) propanehydrazide]	13.8 ± 0.2 µM	
